Key:
Gibco hiPSCs = assay: LPM differentiation assay (FOXF1 high content imaging), Gibco hiPSCs; details: Homo sapiens, 48 h, read-out: IC50 (±SEM) in LPM differentiation assay
Description: (§8) hiPSCs (Gibco or XCL-1 clones) were grown in mTeSR-1 on Matrigel, passaged into small clumps with Versene (4.5 min under normal culture conditions), counted as a single-cell suspension as described above, and seeded as small clumps at approximately 10,000 cells/well (30,000 cells/cm^2, ~15% confluence) in 100 µL mTeSR1 on Matrigel-coated µClear® 96-well plates (Greiner) for 1 d under normal culture conditions. On the day after seeding, the medium was replaced with 100 µL/well of mTeSR-1 (control) or APEL2 + GSKi containing either DMSO or diluted compounds (for a final DMSO concentration of 0.2%). The same conditions were replenished the following day for a total of 2 d of differentiation, and the following day (3 d after seeding), the medium was aspirated, and hiPSCs were fixed in 10% NBF for 15 min at room temperature.
(§9) Immunofluorescence staining was carried out by fixing/permeabilizing cells overnight in blocking buffer containing 3% BSA (Sigma) in DPBS-T, which contains DPBS + Ca^2+//Mg^2+ with 0.3% Triton-X100 (Sigma). Fixed and permeabilized cells were incubated in primary antibodies diluted (as noted in Table 1) in antibody buffer, consisting of 1% BSA in DPBS-T, overnight at 4 °C.
(§10) Cells were washed in blocking buffer for >6 hours at 4 °C and subsequently incubated in secondary antibody diluted in antibody buffer overnight at 4 °C. Secondary antibodies were washed out in antibody buffer for >4 h at 4 °C, and hiPSCs were counterstained with DAPI (Fisher) at 10 µg/mL in DPBS-T for 2 h. hiPSCs were washed in DPBS-T for >2 h at 4 °C, and immediately before imaging, the DPBS-T was replaced with DPBS. […] Chemical dose-response experiments and experiments examining the time-course of marker expression during LPM differentiation were imaged at 10X magnification using the Cellomics ArrayScan or CellInsight Cx7 LZR High Content Screening Platform and HCS Studio Cell Analysis Software (Thermo Fisher). An artificial threshold was uniformly applied to all images to generate the percentage of DAPI+ nuclei that stained positively for FOXF1 or NANOG. Thresholding for FOXF1 and T was performed relative to undiffer-entiated hiPSCs, and thresholding for SALL4 and OCT4 was performed relative to a non-expressing cell type (human primary endothelial cells). Settings for image acquisition and processing were uniformly applied between XCL-1 clones. […] Experiments were repeated in quadruplicate unless otherwise stated, and data are presented as mean ± SEM. Nonlinear regression analysis was performed using the 4-parameter [inhibitor]-vs-response curve fitting algorithm in Prism (GraphPad).

human SALL4 = biological target: T1, human SALL4 (Homo sapiens, UniProt Q9UJQ4); assay: Immunoblot of SALL4 degradation in Lenti-x 293 CRBN-/- cells expressing human CRBN variants; assay type: cell-based
T1 construct: expressed in transfected cells; host or cells: Lenti-x 293 CRBN CRISPR KO (CRBN-/-) cells stably expressing human SALL4, transiently transfected with FLAG-CRBN variants
Description: SALL4 were transiently transfected with vectors expressing GFP or human CRBN variants and treated with
CRBN-/- cells transfected with empty vector were used as a negative control. The cells were then lysed and
characterized by immunoblotting analysis for SALL4, ZFP91, GFP, CRBN, and β-actin.
CRBN CRISPR KO (CRBN -/-) cells were maintained in Dulbecco’s Modified Eagle’s medium (DMEM;
Invitrogen) supplemented with 10% fetal bovine serum (FBS; Invitrogen). All cell lines were confirmed
mycoplasma-negative using the MycoAlert Mycoplasma Detection Kit (Lonza).
CRBN-/- cells stably expressing human SALL4 was transiently transfected with 4 µg of pcDNA3-GFP, pcDNA3-
FLAG-CRBN WT (isoform 1),pcDNA3-FLAG-CRBN E377V (isoform 1) or pcDNA3-FLAG-CRBN V388I (isoform
Cells were then harvested and lysed, and
whole cell extract was subjected to immunoblotting analysis. Cells were washed with ice-cold 1X PBS and
lysed in 50mM Tris-HCl [pH 7.6], 150 mM NaCl, 1% Triton X-100, and 1x Complete ULTRA protease inhibitor
cocktail and PhosSTOP phosphatase inhibitor cocktail. Whole cell extracts were collected after
centrifugation at top speed for 10 minutes, resolved by sodium dodecyl sulfate polyacrylamide gel
electrophoresis, transferred onto a nitrocellulose membrane using the Turboblot system (Bio-Rad), and
probed with the indicated primary antibodies. Bound antibodies were detected with IRDye®-680 or -800 […]

SALL4 [1] = biological target: T2, SALL4 (Homo sapiens, UniProt Q96SW2+Q9UJQ4); assay: SALL4 nuclear protein expression (MFI) by high content imaging, Gibco hiPSCs; assay type: cell-based
T2 construct: Unmodified Gibco hiPSCs were either differentiated in APEL2 + GSKi or maintained in mTeSR1, and SALL4 nuclear protein expression was monitored; endogenous in cells; host or cells: Gibco hiPSCs; XCL-1 SALL4 mock hiPSC clone
Description: (§1) High content imaging analysis of SALL4 immunofluorescence with DAPI counterstaining in hiPSCs. […] Data represent the mean +/− SEM from 2 independent experiments.

SALL4^G416A = biological target: T3, SALL4^G416A (Homo sapiens, UniProt Q9UJQ4, G416A); assay: SALL4 MFI by high content imaging, XCL-1 SALL4^G416A hiPSCs; assay type: cell-based; details: SALL4^G416A hiPSC clone, 8 h of treatment
T3 construct: parental hiPSCs were engineered to express a homozygous G416A mutation in the endogenous SALL4 locus; endogenous in cells; host or cells: XCL-1 SALL4^G416A hiPSC clone (1E6), CRISPR/Cas9 knock-in at the endogenous locus
Description: as §1

SALL4 [2] = biological target: T2, SALL4; assay: SALL4 MFI by high content imaging, XCL-1 SALL4 mock hiPSCs; assay type: cell-based; details: SALL4 mock control hiPSCs, 8 h of treatment
Description: as §1

XCL-1 hiPSC CRBN Mock [3] = assay: LPM differentiation assay (FOXF1 high content imaging), XCL-1 CRBN Mock clone; assay type: cell-based; details: Homo sapiens, 48 h, % FOXF1+ cells after 2 d in APEL2+GSKi, read-out: IC50 (±SEM) in LPM differentiation assay
Description: On the day after seeding, the medium was replaced with 100 µL/well of mTeSR-1 (control) or APEL2 + GSKi containing either DMSO or diluted compounds (for a final DMSO concentration of 0.2%). The same conditions were replenished the following day for a total of 2 d of differentiation, and the following day (3 d after seeding), the medium was aspirated, and hiPSCs were fixed in 10% NBF for 15 min at room temperature.
as §9, §10

XCL-1 hiPSC CRBN KO/KI [4] = assay: LPM differentiation assay (FOXF1 high content imaging), XCL-1 CRBN KO/KI clone; assay type: cell-based, human; details: for IC50: Homo sapiens, 48 h, XCL-1 CRBN KO/KI, % FOXF1+ cells after 2 d in APEL2+GSKi, read-out: IC50 (±SEM) in LPM differentiation assay
Description: On the day after seeding, the medium was replaced with 100 µL/well of mTeSR-1 (control) or APEL2 + GSKi containing either DMSO or diluted compounds (for a final DMSO concentration of 0.2%). The same conditions were replenished the following day for a total of 2 d of differentiation, and the following day (3 d after seeding), the medium was aspirated, and hiPSCs were fixed in 10% NBF for 15 min at room temperature. For time-course experiments, cells were fixed at the specified intervals after the start of LPM differentiation.
as §9
Cells were washed in blocking buffer for >6 hours at 4 °C and subsequently incubated in secondary antibody diluted in antibody buffer overnight at 4 °C. Secondary antibodies were washed out in antibody buffer for >4 h at 4 °C, and hiPSCs were counterstained with DAPI (Fisher) at 10 µg/mL in DPBS-T for 2 h. hiPSCs were washed in DPBS-T for >2 h at 4 °C, and immediately before imaging, the DPBS-T was replaced with DPBS. Initial characterization of LPM differentiation by immunofluorescence was carried out using the A1R confocal microscope (Nikon) equipped with 10X objective, and automated object analysis was carried out using NIS Elements v5 software (Nikon). Chemical dose-response experiments and experiments examining the time-course of marker expression during LPM differentiation were imaged at 10X magnification using the Cellomics ArrayScan or CellInsight Cx7 LZR High Content Screening Platform and HCS Studio Cell Analysis Software (Thermo Fisher). An artificial threshold was uniformly applied to all images to generate the percentage of DAPI+ nuclei that stained positively for FOXF1 or NANOG. Thresholding for FOXF1 and T was performed relative to undiffer-entiated hiPSCs, and thresholding for SALL4 and OCT4 was performed relative to a non-expressing cell type (human primary endothelial cells). Settings for image acquisition and processing were uniformly applied between XCL-1 clones. The capacity of all XCL-1 clones and Gibco hiPSCs to undergo LPM differentiation in the high content format was assessed by FOXF1 and NANOG immunostaining. […] Experiments were repeated in quadruplicate unless otherwise stated, and data are presented as mean ± SEM. Nonlinear regression analysis was performed using the 4-parameter [inhibitor]-vs-response curve fitting algorithm in Prism (GraphPad).
Using CRISPR/Cas9-mediated gene editing, both CRBN alleles were knocked out in XCL-1 hiPSCs cells, followed by the insertion at the AAVS1 locus of a transgene encoding human CRBN with E377V and V388I mutations (clone hereafter referred to as CRBN KO/KI).

XCL-1 hiPSC CRBN KO/KI [5] = assay: cells; assay type: cell-based; details: Homo sapiens, 72 h; XCL-1 CRBN KO/KI; 3 d differentiation; read-out: IC50 (±SEM) in SOX17 differentiation assay
Description: (§2) The assay was carried out as previously described with continuous dosing of chemical for 3 total days of differentiation. SOX17 staining and DAPI counter-staining were carried out as described, and assays were imaged via high content imaging. […]
(§3) Supplementary Figure 7. Dose-response characterization of the influence […]
(§4) of XCL-1 clones. High content imaging analysis of XCL-1 hiPSC clones that were differentiated for 3 days in the presence of compound and subsequently stained for SOX17 and counter-stained with DAPI. Untreated DMSO control is omitted. Data represent the mean +/- SEM %SOX17 cells
(§5) (relative to control) from 4 independent experiments. Nonlinear regression […]
(§6) variable slope plotting tool in GraphPad Prism. A-C: Dose-response […]
(§7) in cereblon mock (hollow circles) or CRBN KO/KI (red filled circles) clones. D- […]

XCL-1 hiPSC SALL4^G416A [6] = assay: cells; assay type: cell-based; details: Homo sapiens, 72 h; XCL-1 SALL4^G416A; 3 d differentiation; read-out: IC50 (±SEM) in SOX17 differentiation assay
Description: as §2, §3, §4, §5, §6, §7

XCL-1 hiPSC SALL4 Mock [7] = assay: cells; assay type: cell-based; details: Homo sapiens, 72 h; XCL-1 SALL4 Mock; 3 d differentiation; read-out: IC50 (±SEM) in SOX17 differentiation assay
Description: as §2, §3, §4, §5, §6, §7

XCL-1 hiPSC CRBN Mock [8] = assay: cells; assay type: cell-based; details: Homo sapiens, 72 h; XCL-1 CRBN Mock; 3 d differentiation; read-out: IC50 (±SEM) in SOX17 differentiation assay
Description: as §2, §3, §4, §5, §6, §7

XCL-1 hiPSC SALL4^G416A [9] = assay: LPM differentiation assay (FOXF1 high content imaging), XCL-1 SALL4^G416A clone; details: for IC50: Homo sapiens, 48 h, read-out: IC50 (±SEM) in LPM differentiation assay
Description: as §8, §9, §10
In addition, XCL-1 hiPSCs were engineered with CRISPR/Cas9 to express a homozygous SALL4 G416A mutation (hereafter referred to as the SALL4^G416A clone), and the homozygous SALL4 G416A mutation was confirmed by next-generation sequencing (Supplementary Fig. 2).

XCL-1 hiPSC SALL4 Mock [10] = assay: LPM differentiation assay (FOXF1 high content imaging), XCL-1 SALL4 Mock clone; details: Homo sapiens, 48 h, read-out: IC50 (±SEM) in LPM differentiation assay
Description: as §8, §9, §10

T2 sequence (Q9UJQ4 whole entry): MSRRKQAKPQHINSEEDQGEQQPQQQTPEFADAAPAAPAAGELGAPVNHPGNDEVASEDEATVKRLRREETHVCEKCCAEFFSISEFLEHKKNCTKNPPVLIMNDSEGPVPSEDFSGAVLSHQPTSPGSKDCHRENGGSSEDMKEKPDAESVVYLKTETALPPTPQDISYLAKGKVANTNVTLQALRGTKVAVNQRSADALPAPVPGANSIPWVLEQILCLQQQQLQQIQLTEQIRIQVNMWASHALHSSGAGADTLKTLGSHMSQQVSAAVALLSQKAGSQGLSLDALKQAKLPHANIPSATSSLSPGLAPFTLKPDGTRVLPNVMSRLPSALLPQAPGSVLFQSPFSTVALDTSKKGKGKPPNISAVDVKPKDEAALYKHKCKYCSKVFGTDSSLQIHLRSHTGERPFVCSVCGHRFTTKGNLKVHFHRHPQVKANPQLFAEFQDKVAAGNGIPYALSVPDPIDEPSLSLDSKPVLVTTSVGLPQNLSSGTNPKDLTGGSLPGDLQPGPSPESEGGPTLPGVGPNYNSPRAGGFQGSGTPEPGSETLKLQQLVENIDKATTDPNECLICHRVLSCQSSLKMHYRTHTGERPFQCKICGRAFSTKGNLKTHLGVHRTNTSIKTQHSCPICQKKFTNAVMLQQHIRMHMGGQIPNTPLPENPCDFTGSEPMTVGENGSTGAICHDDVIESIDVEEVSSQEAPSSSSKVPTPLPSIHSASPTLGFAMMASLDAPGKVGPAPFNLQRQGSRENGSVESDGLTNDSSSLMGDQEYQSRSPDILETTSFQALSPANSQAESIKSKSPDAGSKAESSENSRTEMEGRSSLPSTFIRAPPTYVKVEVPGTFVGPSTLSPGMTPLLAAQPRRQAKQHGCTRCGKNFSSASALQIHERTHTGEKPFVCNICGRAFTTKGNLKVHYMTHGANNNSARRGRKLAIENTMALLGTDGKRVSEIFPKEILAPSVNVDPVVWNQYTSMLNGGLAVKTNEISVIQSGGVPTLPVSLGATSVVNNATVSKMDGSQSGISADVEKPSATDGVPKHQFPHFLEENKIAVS
T2 sequence (Q96SW2 whole entry): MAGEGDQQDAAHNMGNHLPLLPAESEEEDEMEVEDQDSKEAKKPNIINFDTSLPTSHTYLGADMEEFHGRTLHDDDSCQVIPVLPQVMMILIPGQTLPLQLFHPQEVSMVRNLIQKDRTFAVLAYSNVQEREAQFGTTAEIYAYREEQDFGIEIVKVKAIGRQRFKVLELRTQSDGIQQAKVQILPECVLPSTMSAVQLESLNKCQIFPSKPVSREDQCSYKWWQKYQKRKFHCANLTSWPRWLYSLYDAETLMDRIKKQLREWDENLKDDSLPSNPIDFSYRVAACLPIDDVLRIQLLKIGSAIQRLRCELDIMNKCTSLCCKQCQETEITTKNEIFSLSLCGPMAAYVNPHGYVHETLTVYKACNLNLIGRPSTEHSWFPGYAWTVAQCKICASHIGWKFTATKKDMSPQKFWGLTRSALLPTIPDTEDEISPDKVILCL
T2 sequence (Q16531 whole entry partner): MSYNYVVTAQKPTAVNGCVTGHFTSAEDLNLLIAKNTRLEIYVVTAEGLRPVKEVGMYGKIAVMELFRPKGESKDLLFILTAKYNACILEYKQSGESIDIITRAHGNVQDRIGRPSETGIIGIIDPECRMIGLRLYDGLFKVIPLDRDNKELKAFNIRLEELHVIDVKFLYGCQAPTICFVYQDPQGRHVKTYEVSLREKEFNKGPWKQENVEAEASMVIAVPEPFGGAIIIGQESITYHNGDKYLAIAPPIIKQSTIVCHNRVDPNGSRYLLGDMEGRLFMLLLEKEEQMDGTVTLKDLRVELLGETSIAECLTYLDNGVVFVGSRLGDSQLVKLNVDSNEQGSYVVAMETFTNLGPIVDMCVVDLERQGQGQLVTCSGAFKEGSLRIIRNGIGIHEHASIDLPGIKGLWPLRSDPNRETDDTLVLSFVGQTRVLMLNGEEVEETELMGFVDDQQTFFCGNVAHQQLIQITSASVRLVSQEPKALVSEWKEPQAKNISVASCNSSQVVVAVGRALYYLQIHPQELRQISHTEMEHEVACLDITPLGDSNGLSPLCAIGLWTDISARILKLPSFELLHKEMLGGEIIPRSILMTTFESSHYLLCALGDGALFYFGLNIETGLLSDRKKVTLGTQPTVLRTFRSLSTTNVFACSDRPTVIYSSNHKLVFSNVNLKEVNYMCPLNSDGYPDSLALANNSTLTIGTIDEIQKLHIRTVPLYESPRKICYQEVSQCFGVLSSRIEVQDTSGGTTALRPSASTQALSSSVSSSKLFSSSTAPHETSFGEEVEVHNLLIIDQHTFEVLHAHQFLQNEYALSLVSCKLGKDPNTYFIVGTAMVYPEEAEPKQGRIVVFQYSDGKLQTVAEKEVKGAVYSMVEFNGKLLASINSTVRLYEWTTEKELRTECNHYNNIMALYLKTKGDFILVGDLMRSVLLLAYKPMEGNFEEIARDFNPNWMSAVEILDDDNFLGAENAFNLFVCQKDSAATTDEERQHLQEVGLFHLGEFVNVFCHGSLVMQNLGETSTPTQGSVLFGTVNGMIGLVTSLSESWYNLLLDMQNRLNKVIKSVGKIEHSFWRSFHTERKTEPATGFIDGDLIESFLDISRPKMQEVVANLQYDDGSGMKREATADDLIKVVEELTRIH
T3 sequence (Q96SW2 whole entry partner): as the sequence (Q96SW2 whole entry) above
T3 sequence (Q16531 whole entry partner): as the sequence (Q16531 whole entry partner) above
T3 sequence (Q9UJQ4 whole entry G416A): as the sequence (Q9UJQ4 whole entry) above, with G416A counted along it
T1 sequence (Q96SW2 whole entry partner): as the sequence (Q96SW2 whole entry) above
T1 sequence (Q16531 whole entry partner): as the sequence (Q16531 whole entry partner) above
T1 sequence (Q9UJQ4 whole entry): as the sequence (Q9UJQ4 whole entry) above

Structure (SMILES)	IC50 (Gibco hiPSCs) [nM]	SALL4 degradation in human cells expressing CRBN with the V388I mutation (human SALL4)	time-course of SALL4 MFI (SALL4 [1]; 20 µM, Gibco hiPSCs in mTeSR1 or APEL2+GSKi, 2, 8 and 24 h after dosing)	magnitude of the decrease in SALL4 MFI (SALL4 [1]; Gibco hiPSCs, 8 h of treatment, dose-response)	effect on SALL4 MFI (SALL4^G416A)	effect on SALL4 MFI (SALL4 [2])	IC50 (XCL-1 hiPSC CRBN Mock [3]) [nM]	inhibition of LPM differentiation at the highest concentration tested (XCL-1 hiPSC CRBN KO/KI [4]; 50 µM, CRBN KO/KI clone)	IC50 (XCL-1 hiPSC CRBN KO/KI [4]) [nM]	IC50 (XCL-1 hiPSC CRBN KO/KI [5]) [nM]	IC50 (XCL-1 hiPSC SALL4^G416A [6]) [nM]	IC50 (XCL-1 hiPSC SALL4 Mock [7]) [nM]	IC50 (XCL-1 hiPSC CRBN Mock [8]) [nM]	IC50 (XCL-1 hiPSC SALL4^G416A [9]) [nM]	inhibition of LPM differentiation at the two highest concentrations tested (XCL-1 hiPSC SALL4^G416A [9]; SALL4^G416A clone)	IC50 (XCL-1 hiPSC SALL4 Mock [10]) [nM]
Nc1cccc2c1CN(C1CCC(=O)NC1=O)C2=O (stereo not shown) [Lenalidomide, lenalidomide]	160 ± 80															
Nc1cccc2c1C(=O)N(C1CCC(=O)NC1=O)C2=O (stereo not shown) [Pomalidomide, pomalidomide]	10 ± 10	failed to induce SALL4 degradation	rapid decline in SALL4 MFI 2 h after dosing	~ 55%	unchanged	potently reduced SALL4 MFI	20 ± 10	inhibited LPM differentiation albeit not to the same magnitude as control hiPSCs	> 50000	> 50000	> 50000	10 ± 10	20 ± 20	> 50000	modest inhibition of LPM differentiation	90 ± 90
NC(=O)c1ccc(-c2nc(-c3ccc4c(c3)OCO4)c(-c3ccccn3)[nH]2)cc1 [SB431542]	2760 ± 5580						650 ± 180		790 ± 400					510 ± 100		630 ± 170

Source: article PMC7046148 (Scientific Reports, 2020)
